Entries after “also recorded” stand apart in the source; their conditions may differ. Counter-ions that a name gives are not always drawn.
Experiments:
[1] = test system: C57B/6 mice, transient focal cerebral ischemia (MCAo); settings: mouse, in vivo
D3 dopamine receptor = target: T1, D3 dopamine receptor (Homo sapiens, UniProt P35462); assay: Off-target binding, NIMH Psychoactive Drug Screening program; settings: read-out: inhibition of binding at D3 dopamine receptor
T1 construct: NIMH Psychoactive Drug Screening program

[2] = test system: mice, LAD ligation ischemia/reperfusion; assay: Myocardial ischemia/reperfusion (LAD ligation), echocardiography; assay type: in vivo, mouse; settings: 2 mg/kg/day s.c. minipump 3 days at reperfusion after 60 min LAD occlusion, 2 weeks or 4 weeks post-I/R, vs vehicle
H2 histamine receptor = target: T2, H2 histamine receptor (Homo sapiens, UniProt P25021); assay: Off-target binding, NIMH Psychoactive Drug Screening program; settings: read-out: inhibition of binding at H2 histamine receptor
T2 construct: NIMH Psychoactive Drug Screening program

[3] = test system: middle-aged mice after MCAo; settings: dose 3 mg/kg; four weeks after MCAo; vs Veh; listed as MRS 4719, 3 mg/kg

T1 sequence (P35462 whole entry): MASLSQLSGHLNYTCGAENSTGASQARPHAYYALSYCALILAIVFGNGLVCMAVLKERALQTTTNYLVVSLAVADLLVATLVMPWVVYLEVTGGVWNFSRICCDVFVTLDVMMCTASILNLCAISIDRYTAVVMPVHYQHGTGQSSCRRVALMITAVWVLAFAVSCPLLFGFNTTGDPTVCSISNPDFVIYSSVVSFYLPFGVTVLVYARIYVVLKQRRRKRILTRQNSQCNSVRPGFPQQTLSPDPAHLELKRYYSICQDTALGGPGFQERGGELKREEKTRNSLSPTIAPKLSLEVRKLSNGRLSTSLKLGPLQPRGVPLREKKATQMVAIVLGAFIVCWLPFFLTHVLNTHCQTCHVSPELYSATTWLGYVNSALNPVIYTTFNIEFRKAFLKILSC
T2 sequence (P25021 whole entry): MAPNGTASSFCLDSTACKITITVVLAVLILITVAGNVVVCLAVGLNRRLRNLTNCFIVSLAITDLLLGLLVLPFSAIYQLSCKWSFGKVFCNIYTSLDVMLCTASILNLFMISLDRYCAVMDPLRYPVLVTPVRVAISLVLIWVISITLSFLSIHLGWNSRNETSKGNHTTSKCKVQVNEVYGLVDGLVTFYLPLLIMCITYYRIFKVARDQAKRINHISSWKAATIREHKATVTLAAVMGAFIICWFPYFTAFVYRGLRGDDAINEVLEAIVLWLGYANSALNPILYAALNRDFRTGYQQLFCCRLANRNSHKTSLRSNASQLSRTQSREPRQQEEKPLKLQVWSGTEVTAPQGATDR

## O=C1CC(=O)N(c2ccnc(-c3noc(=S)[nH]3)c2)c2ccc3ccccc3c2N1 [Compound 21u, 5-(2-(5-Thioxo-4,5-dihydro-1,2,4-oxadiazol-3-yl)pyridin-4-yl)-1,5-dihydro-2H-naphtho[1,2-b][1,4]diazepine-2,4(3H)-dione triethylamine salt]
[1]
  cortical infarct volume: significantly reduced
  striatal infarct volume: no statistically significant decrease
  total hemispheric infarct volume: significantly reduced
[1]; 3 mg/kg
  neuroprotection based on total hemispheric infarct volume size: significant neuroprotection
D3 dopamine receptor
  inhibition at 10 µM: 74 ± 10%
[2]; listed as MRS 4719
  decline in fractional shortening (FS): less than those in vehicle-treated mice
  decline in left ventricular ejection fraction (EF): less than those in vehicle-treated mice
[2]; listed as MRS4719
  decline in fractional shortening (FS): lesser degree of decline
  decline in left ventricular ejection fraction (EF): lesser degree of decline
H2 histamine receptor
  inhibition at 10 µM: 89 ± 4%
[3]
  learning and memory, NORT: significant retention of memory; also recorded: reached to statistical significance

From US20250360143A1, “COMPOSITIONS AND METHODS FOR PHA[…] OF STROKE AND […] REPERFUSION INJURY” (priority 2022, published 2025)
